Test results as given in patent US20230263822A1, “MODULATION OF FACTOR 11 EXPRESSION” (Ionis Pharmaceuticals, Inc., priority 2008, published 2023).

Test system: murine Factor 11 protein
Experiment: Factor 11 protein, F11 assay based on clotting time (Example 10)
Assay type: in vivo
Conditions: BALB/c mice; for % Inhibition of murine Factor 11 protein: plasma, relative to PBS control
Protocol: BALB/c mice were injected with 5 mg/kg, 10 mg/kg, 25 mg/kg, or 50 mg/kg of ISIS 404057 or ISIS 404071 twice a week for 3 weeks. A control group of mice was injected with phosphate buffered saline (PBS) twice a week for 3 weeks. Mice were sacrificed 5 days after receiving the last dose. Whole liver was harvested for RNA analysis and plasma was collected for clotting analysis (PT and aPTT) and protein analysis.
Factor 11 proenzyme from the plasma of mice treated with ISIS 404071, was measured using a F11 assay based on clotting time. Clotting times were determined in duplicate with a ST4 semi-automated coagulation instrument (Diagnostica Stago, NJ). Thirty μl of citrated sample plasma diluted 1/20 in HEPES-NaCl buffer with BSA was incubated with 30 μl aPTT reagent (Platelet Factor 3 reagent plus particulate activator) and 30 μl of citrated plasma deficient of Factor 11 (human congential, George King Bio-Medical Inc.) at 37° C. to initiate clotting. Results were interpolated on a standard curve of serially diluted citrated control murine plasma.
Results are presented as percent inhibition of Factor 11, relative to PBS control.

Substance: ISIS 404071: antisense oligonucleotide targeted to murine Factor 11 mRNA, TGGTAATCCACTTTCAGAGG, target start site 869 (chemistry not given here)
- Factor 11 protein (5-50 mg/kg): significant dose-dependent reduction of Factor 11 protein
- % Inhibition of murine Factor 11 protein (5 mg/kg): 39%
- % Inhibition of murine Factor 11 protein (10 mg/kg): 67%
- % Inhibition of murine Factor 11 protein (25 mg/kg): 89%
- % Inhibition of murine Factor 11 protein (50 mg/kg): 96%
